# Tests used:
# [1] = target: T1, Mouse recombinant KDM1B (Mus musculus, UniProt Q8CIG3); experiment: KDM1B inhibition assay; assay type: biochemical
# T1 construct: gift: Dr. Andrea Mattevi, University of Pavia
# Method: Mouse recombinant KDM1B protein was kindly provided by Dr. Andrea Mattevi from the University of Pavia. The biochemical activity assay was carried out at room temperature in a similar manner as for KDM1A but using 50 mM HEPES pH 8.5 as the reaction buffer, but with 10 min of incubation of KDM1B in the presence of dimethylated H3K4 peptide at the KMapp of KDM1B.
# [2] = target: T2, Human recombinant IL-4I1 (Homo sapiens, UniProt Q96RQ9); experiment: IL4I1 inhibition assay; assay type: biochemical
# T2 construct: purchased RD Systems 5684-AO-020
# Method: Human recombinant IL-4I1 was purchased from RD Systems (Ref. 5684-AO-020). The biochemical activity was measured by its ability to oxidize phenylalanine (specific substrate for IL-4I1; Sigma, P2126) and liberate H2O2 was measured in a coupled horseradish peroxidase assay using Amplex Red reagent as a substrate, as described in the KDM1A assay. The IL4I1 assay buffer was 50 mM Sodium Phosphate pH 7.0. Inhibition of IL-4I1 was monitored during 30 min in the presence of KM phenylalanine peptide at the KMapp of IL-4I1.
# [3] = tested on: SAMP8 mice; experiment: Novel Object Recognition Test (NORT); assay type: in vivo, mouse
# Method: (§1) Both male and female mice from the senescence accelerated strain SAMP8 and its control SAMR1 of different ages (see Table S3 for details) were used in these studies. Mice were breed in the animal facilities of the Pharmacy Faculty (University of Barcelona), maintained in a at 22 ± 2 °C controlled temperature in a 12 hr light / dark cycle (lights on at 8:00 am; 300 lux/0 lux) with ad libitum access to food (2018 TEKLAD, Harlan) and water. Male mice were housed individually (males) or in groups of 4-5 animals (females) in plastic colony boxes with a sawdust bedding material. […] SAMR1 mice treated with vehicle were included as a control. All drugs were administered via drinking water and diluted in vehicle. Drug concentration was calculated weekly in function of body weight and corrected in function of drinking water consumption. Cognitive function was evaluated by NORT, social behavior was evaluated by RI and anxiety and motor function were evaluated by EPM and OF. When necessary, animals were deeply anesthetized (80 mg/kg sodium pentobarbital) and brain samples (hippocampus, (prefrontal) cortex) were micro-dissected and processed according to the downstream analysis.
# The protocol was performed as previously described. Briefly, animals were placed in a 90°- two-arm maze. Mice were habituated to the apparatus for 10 min during 3 consecutive days. On day 4, two identical novel objects (A+A or B+B) were placed at the end of each arm and animals performed a 10-min acquisition trial. A 10-min retention trial was carried out 2 hr after the acquisition trial with object A and B. Time exploring the novel (NO) and the familiar object (FO) was measured and a discrimination Index (DI) was defined as (NO-FO)/(NO+FO). In some experiments, a more restrictive threshold was applied and animals exploring less than 5 sec (NO+FO) were excluded from the analysis (Table S3).
# Novel Object Recognition Test (NORT): Time exploring the novel (NO) and the familiar object (FO) was measured and a discrimination Index (DI) was defined as (NO-FO)/(NO+FO). In some experiments, a more restrictive threshold was applied and animals exploring less that 5 sec (NO+FO) were excluded from the analysis (Table S3). Open Field (OF): Locomotor activity was analyzed by video-tracking over the captured images using SMART® (v 2.5.21 (rat) or v3.0 (mice), PanLab, SLU, Spain).
# [4] = tested on: SAMP8 mice; experiment: Elevated Plus Maze (EPM), SAMP8; assay type: in vivo, mouse; conditions: 0.32 or 0.96 mg/kg/day
# Method: as §1, with “All drugs were administered via drinking water and diluted in vehicle.” left out, “When necessary, animals were deeply anesthetized (80 mg/kg sodium pentobarbital) and brain samples (hippocampus, (prefrontal) cortex) were micro-dissected and processed according to the downstream analysis.” left out
# The EPM consisted of four arms at right angles to each other connected to a central square and maintained elevated 50 cm above the floor. […] The animal was placed facing a closed arm, and its movements were video-recorded for 5 min and analyzed by video-tracking using SMART® (v3.0, PanLab, SLU, Spain).
# Elevated Plus Maze (EPM): Movements were video-recorded for 5 min and analyzed by video-tracking using SMART® (v3.0, PanLab, SLU, Spain).
# [5] = tested on: rats; experiment: Functional Observation Battery; assay type: in vivo; conditions: single dose of up to 100 mg/kg
# [6] = tested on: guanylyl cyclase (h) (activator effect); experiment: CEREP Diversity Panel; assay type: biochemical, human; parameters: dose or concentration left out as unconfirmed
# Method: […]. MAO-A inhibition at 10 μM was 37%, in line with internal data.
# T1 sequence (Q8CIG3 whole entry): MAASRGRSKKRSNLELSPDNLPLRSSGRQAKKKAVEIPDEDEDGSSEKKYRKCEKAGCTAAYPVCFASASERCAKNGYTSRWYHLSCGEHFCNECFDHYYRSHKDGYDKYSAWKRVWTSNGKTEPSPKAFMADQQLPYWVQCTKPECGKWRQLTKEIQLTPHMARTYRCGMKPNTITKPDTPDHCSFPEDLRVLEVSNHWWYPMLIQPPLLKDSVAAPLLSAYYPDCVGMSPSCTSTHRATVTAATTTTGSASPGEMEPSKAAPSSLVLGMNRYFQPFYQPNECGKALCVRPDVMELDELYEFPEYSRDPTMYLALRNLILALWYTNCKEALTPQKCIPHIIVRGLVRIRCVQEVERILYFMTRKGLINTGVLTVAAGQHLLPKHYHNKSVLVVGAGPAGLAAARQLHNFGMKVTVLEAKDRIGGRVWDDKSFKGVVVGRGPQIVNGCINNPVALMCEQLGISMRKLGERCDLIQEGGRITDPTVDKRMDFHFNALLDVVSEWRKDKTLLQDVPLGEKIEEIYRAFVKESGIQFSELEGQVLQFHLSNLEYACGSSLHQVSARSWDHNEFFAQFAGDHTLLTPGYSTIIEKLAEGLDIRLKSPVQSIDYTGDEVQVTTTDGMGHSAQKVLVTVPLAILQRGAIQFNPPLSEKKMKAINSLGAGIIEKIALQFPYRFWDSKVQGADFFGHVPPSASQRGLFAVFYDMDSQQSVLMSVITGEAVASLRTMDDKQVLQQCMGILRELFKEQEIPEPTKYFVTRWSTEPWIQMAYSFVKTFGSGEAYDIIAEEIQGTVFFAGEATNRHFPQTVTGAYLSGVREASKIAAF
# T2 sequence (Q96RQ9 22-567): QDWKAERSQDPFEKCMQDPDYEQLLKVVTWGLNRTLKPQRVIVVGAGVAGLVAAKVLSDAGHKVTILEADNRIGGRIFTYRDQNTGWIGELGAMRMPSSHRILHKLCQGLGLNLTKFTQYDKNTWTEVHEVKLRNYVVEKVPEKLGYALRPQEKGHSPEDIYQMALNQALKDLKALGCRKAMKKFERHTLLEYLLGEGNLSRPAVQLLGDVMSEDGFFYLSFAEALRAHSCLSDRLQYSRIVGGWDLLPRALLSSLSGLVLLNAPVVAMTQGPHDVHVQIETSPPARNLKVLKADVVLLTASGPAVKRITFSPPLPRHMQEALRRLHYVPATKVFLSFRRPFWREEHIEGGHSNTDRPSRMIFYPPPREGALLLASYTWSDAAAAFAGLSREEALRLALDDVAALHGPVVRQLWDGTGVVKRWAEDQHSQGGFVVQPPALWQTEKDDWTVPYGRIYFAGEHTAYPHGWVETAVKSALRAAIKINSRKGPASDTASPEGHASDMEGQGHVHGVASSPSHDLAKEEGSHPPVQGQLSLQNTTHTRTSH
compound,measurement,setting,value
"Nc1nnc(CN[C@@H]2C[C@H]2c2ccc(OCc3ccccc3)cc2)o1 [ORY-2001, vafidemstat]",inhibition at 10 µM,[1],7%
same,inhibition at 10 µM,[2],29%
same,NORT discrimination capacity,"[3]; 0.32 and 0.96 mg/kg/day (Exp3, Exp4)",completely restored the discrimination capacity
same,"NORT discrimination capacity, short treatment",[3]; 5 day treatment at 0.96 mg/kg/day (Exp5),equally effective as a one month treatment
same,NORT performance of aged SAMP8 mice,"[3]; eight month old, treated 4 months (Exp7)",fully rescued the performance
same,rescue of NORT discrimination deficit,[3]; lowest dose (0.11 mg/kg/day),~ 50%
same,time in the open arms of the EPM,[4],not significantly modified
same,neurological alterations in the Functional Observation Battery,[5],did not lead to neurological alterations
same,% inhibition,[6],1%

# Source: publication PMC7259601 (PLoS ONE, 2020)
